# Source: patent publication US20240391912A1, “MORPHIC FORMS OF CFT7455 AND METHODS OF MANUFACTURE THEREOF” (C4 THERAPEUTICS, INC., priority 2022, published 2024)
# Tests used:
# [1] = Competitive equilibration experiment of Compound 1 Form I and Form IV for 1 week; type: physicochemical; conditions: for form obtained in competitive equilibration: 25° C.; for form obtained in competitive equilibration / XRPD: 1 week
# Description: About 10 mg of Compound 1 Form I and 10 mg Compound 1 Form IV were added to 0.8 mL saturated solution in selected solvent. Obtained suspensions were stirred at 400 rpm and 25° C. for 1 week. Solids obtained were separated by filtration and characterized by XRPD.
# [2] = test system: OCI-LY10 human DLBCL intracranial xenografts; experiment: OCI-LY10 human DLBCL intracranial xenograft study, survival; conditions: for Median Survival (Days), ± SEM / Survival time extension (%): Rituximab, i.v., QW
# Description: Agents were tested in the OCI-LY10 human DLBCL intracranial model. […] Rituximab was administered from day 1 via i.v. once per week. Rituximab was dosed at 10 and 30 mg/kg. Individual mouse was euthanized once its body weight loss was over 20%.
# The cells growing in an exponential growth phase were harvested and counted for tumor inoculation.
# 99 CB17 SCID mice were inoculated by intracranial injection with OCI-LY10 cells (1×10^6) for tumor development.
# Tumor inoculation: Intraperitoneally injected avertin at dosage of 240 mg/kg to anaesthetize the CB17 SCID mice. Fixed the head of the anaesthetized mice to the brain solid positioner, sterilized the head skin with 70% alcohol. […] Punched a hole about 2 mm right of the anterior fontanel and 1 mm ahead the coronal on the skull with a 25 G needle. Cell suspensions were mixed and certain amount was sucked into the 5 μL injector slowly to avoid bubble formation. The cells were swapped around the needle with alcohol to avoid extracranial tumor genesis. The needle was stuck vertically into the formed hold and 5 μL of cell suspension containing 1×10^6 OCI-LY10 cells was slowly injected for over 1 minute. The injector was then held for another 1 minute and then pulled back to decrease the drainage of the cells suspension. The skin was closed with tweezers and then sewed. Meloxicam was then injected 30 min after the surgery at dosage of 5 mg/kg to relieve the pain. The animals were kept under monitoring until they were awake.
# Animals were grouped for treatment on day 7 after tumor inoculation.
# At the time of routine monitoring, the animals were daily checked for any effects of tumor growth and treatments on normal behavior such as mobility, food and water consumption (by looking only), body weight gain/loss (body weights were measured twice weekly), eye/hair matting and any other abnormal effect as stated in the protocol. Death and observed clinical signs were recorded on the basis of the numbers of animals within each subset.
# [3] = Approximate solubility of Compound 5 polymorphs in EtOH:DCM (v:v=1:4); type: physicochemical; conditions: 25° C.; for Approximate solubility (visual appearance): EtOH:DCM (v:v = 1:4)
# Description: Four polymorphs (Form V, Form VI, Form VII and Form VIII) were weighed respectively and a suitable amount of solvent mixture EtOH:DCM (v:v=1:4) was added. The obtained samples were stirred at a rate of 400 rpm at 25° C.
# [4] = Bulk stability of Compound 5 Form VI and Form VIII at 25° C./60% RH, open container, 1 week (XRPD, HPLC, color); type: physicochemical
# Description: Compound 5 Form VI and Form VIII were placed at 25° C./60% RH in an open container over 1 week. Samples after the stress were characterized by XRPD and HPLC and inspected for color change.
# [5] = Solubility of Compound 5 Form VI and Form VIII at 25° C., equilibration for 24 hours (HPLC; XRPD of residual solids); type: physicochemical
# Description: 11 mg (for 20 mg/mL target concentration) or 22 mg (for 50-60 mg/mL target concentration) of Compound 5 Form VI and Form VIII (equivalent to 10 mg or 20 mg of anhydrate free base) was weighed into a 4 mL glass vial, respectively. Up to 0.5 mL of potential eluent medium was added. The obtained suspensions/solutions were stirred at 25° C. at 400 rpm for 24 hours and then centrifuged at 25° C. at 14,000 rpm for 5 minutes. The residual solids were characterized by XRPD to determine the physical form. The supernatants (0.1 mL) were evaporated at about 22-25° C./30-60% RH.
# [6] = Characterization of polymorphs and pseudo-polymorphs of Compound 5; type: physicochemical
# [7] = Scale-up experiment (200 mg) and characterization of new polymorphs of Compound 1; type: physicochemical; conditions: for X-ray diffraction: 3-40° (2 theta), XRPD method 1; for Thermogravimetry weight loss / water corresponding to TGA weight loss: TGA
# Description: Scale-up 1: About 200 mg of Compound 1 Form I was dissolved in 10 mL THF/Water (95:5, v:v) at 40° C. […] Compound 1 Form IV was obtained. It was subjected to characterization.
# Scale-up 2: About 200 mg of Compound 1 Form I was dissolved in 10 mL THF/Water (95:5, v:v) at 40° C. […] It was subjected to characterization.
# [8] = Crystallization of Compound 1 at room temperature by slow evaporation (XRPD); type: physicochemical; conditions: 25° C./92% RH for 2 days
# Description: About 20 mg of Compound 1 Form I (free form) was dissolved and filtered by 0.45 μm nylon filter. Obtained solutions were evaporated slowly at ambient condition. Solid residues were examined for their polymorphic form.
# [9] = THF/Heptane (v:v = 1:2), 25° C., 24 hours, target conc. 20 mg/mL
# [10] = THF/water (v:v = 1:2.5), 25° C., 24 hours, target conc. 20 mg/mL, listed as Form VI
compound,measurement,setting,value
O=C1CC[C@H](N2C(=O)c3cccc4c(Cc5ccc(CN6CCOCC6)cc5)ccc2c34)C(=O)N1 [Form I and Form IV],form obtained in competitive equilibration,"[1]; DMSO/water system, all selected water activity mixtures",physical mixtures of Form I and Form IV
same,form obtained in competitive equilibration,"[1]; THF/water system, a.w.≤0.3",Form I (anhydrate)
same,form obtained in competitive equilibration,"[1]; THF/water system, water activity (a.w.)≥0.6",Form IV (hydrate)
rituximab: CD20 inhibitor; targeted antibody,"Median Survival (Days), ± SEM",[2]; 10 mg/kg,17.00 ± 0.46 days
same,Survival time extension (%),[2]; 10 mg/kg,21.4%
same,"Median Survival (Days), ± SEM",[2]; 30 mg/kg,16.00 ± 0.94 days
same,Survival time extension (%),[2]; 30 mg/kg,14.3%
same,extension of survival time,"[2]; rituximab 10 mg/kg i.v. once per week, p=0.001",21.4%
same,extension of survival time,"[2]; rituximab 30 mg/kg i.v. once per week, p=0.085",14.3%
O=C1CC[C@H](N2C(=O)c3cccc4c(Cc5ccc(CN6CCOCC6)cc5)ccc2c34)C(=O)N1 [Form I + Form IV],XRPD,"[1]; THF/Water (63.9:36.1, v:v), a.w. 1.0, 25° C.",Form IV
same,XRPD,"[1]; THF/Water (86.9:13.1, v:v), a.w. 0.8, 25° C.",Form IV
same,XRPD,"[1]; THF/Water (92.3:7.7, v:v), a.w. 0.6, 25° C.",Form IV
same,XRPD,"[1]; THF/Water (97.0:3.0, v:v), a.w. 0.3, 25° C.",Form I
same,XRPD,"[1]; THF/Water (98.1:1.9, v:v), a.w. 0.2, 25° C.",Form I
same,XRPD,"[1]; THF/Water (99.1:0.9, v:v), a.w. 0.1, 25° C.",Form I
O=C1CCC(N2C(=O)c3cccc4c(Cc5ccc(CN6CCOCC6)cc5)ccc2c34)C(=O)N1 (racemic) [Compound 5 Form VI],Approximate solubility (visual appearance),"[3]; concentration 10 mg/mL, listed as Form VI",Suspension
same,Approximate solubility (visual appearance),"[3]; concentration 20 mg/mL, listed as Form VI",Suspension
same,approximate solubility compared with Form V and Form VII,"[3]; EtOH:DCM (v:v=1:4), visual observation",higher solubility
same,"bulk stability, chemical",[4],chemically stable
same,"bulk stability, physical (form)",[4]; listed as Form VI,good physical stability
same,Bulk (HPLC) Purity,"[4]; solid state, initial purity 93.1% (Form VI), 95.6% (Form VIII), listed as Form VI",93.1%
same,Bulk (XRPD),"[4]; solid state, listed as Form VI",Form VI
same,solubility,"[5]; EtOH/DCM (v:v = 1:4), 25° C., 24 hours, target conc. 50-60 mg/mL, LOQ 0.8 μg/mL, listed as Form VI",27 mg/mL
same,solubility,"[5]; MeOH/DCM (v:v = 1:2), 25° C., 24 hours, target conc. 50-60 mg/mL, LOQ 0.8 μg/mL",30 mg/mL
same,physical form after solubility test,"[5]; MeOH:DCM (v:v=1:2) and EtOH:DCM (v:v=1:4), 25° C., 24 h",converted to almost the amorphous form
same,XRPD of residual solids,[5]; [9],Form VI
same,solubility,[5]; [9],0.1 mg/mL
same,XRPD of residual solids,"[5]; THF/IPA (v:v = 1:2), 25° C., 24 hours, target conc. 20 mg/mL",Form VI
same,solubility,"[5]; THF/IPA (v:v = 1:2), 25° C., 24 hours, target conc. 20 mg/mL, listed as Form VI",0.9 mg/mL
same,XRPD of residual solids,[5]; [10],Form VI
same,solubility,[5]; [10],4 mg/mL
same,physical form after solubility test,"[5]; THF:2-propanol (v:v=1:2), THF:Heptane (v:v=1:2) and THF:water (v:v=1:2.5), 25° C., 24 h",no form change
same,solubility,"[5]; in EtOH/DCM (v:v=1:4), about 25° C., 24 h, listed as Form VI",~27 mg/mL
same,solubility,"[5]; in MeOH/DCM (v:v=1:2), about 25° C., 24 h",about 30 mg/mL
same,solubility,"[5]; in MeOH:DCM (v:v=1:2) and EtOH:DCM (v:v=1:4), 25° C. for 24 h, listed as Form VI",~30 mg/mL
same,solubility,"[5]; in THF:IPA (v:v=1:2), THF:Heptane (v:v=1:2) and THF:Heptane (v:v=1:2.5), 25° C. for 24 h",~1 mg/mL
same,Evaporation of solvent from (by DSC),[6]; DSC,about 154° C.;
same,Dehydration (by DSC),"[6]; DSC, listed as Form VI",about 6° C.;
same,Enthalpy (by DSC),"[6]; DSC, listed as Form VI",35 J/g
same,Melting onset Tonset (by DSC),"[6]; DSC, listed as Form VI","Tonset 226.4° C.,"
same,Weight loss (by TGA),[6]; at 215° C.,9.7% at 215 °C
same,Residual ion (by IC): Br−,[6]; listed as Form VI,Br^−: 0.22 equiv.
same,Residual ion (by IC): Cl−,[6]; listed as Form VI,Cl^−: 0.08 equiv.;
same,Residual ion (by IC): Li+,[6]; listed as Form VI,Li^+: 0.17 equiv.;
same,Residual ion (by IC): Na+,[6]; listed as Form VI,Na+: 0.02 equiv.
"O=C1CC[C@H](N2C(=O)c3cccc4c(Cc5ccc(CN6CCOCC6)cc5)ccc2c34)C(=O)N1 [Compound 1 Form III, (S)-3-(6-(4-(morpholinomethyl)benzyl)-2-oxobenzo[cd]indol-1(2H)-yl)piperidine-2,6-dione]",X-ray diffraction,[7]; listed as Form III,Crystalline
same,Thermogravimetry weight loss,"[7]; 10° C./min, at 120° C.",About 5.8%
same,water corresponding to TGA weight loss,"[7]; 10° C./min, listed as Form III",120 °C (1.5 equiv.
O=C1CCC(N2C(=O)c3cccc4c(Cc5ccc(CN6CCOCC6)cc5)ccc2c34)C(=O)N1 (racemic) [Compound 5 Form VII],Approximate solubility (visual appearance),"[3]; concentration 10 mg/mL, listed as Form VII",Suspension
same,Approximate solubility (visual appearance),"[3]; concentration 20 mg/mL, listed as Form VII",Suspension
same,Residual solvent (by 1H-NMR): NMP,[6]; 2 unknown peaks,1.6 equiv. NMP;
"O=C1CC[C@H](N2C(=O)c3cccc4c(Cc5ccc(CN6CCOCC6)cc5)ccc2c34)C(=O)N1 [Compound 1 Form IV, (S)-3-(6-(4-(morpholinomethyl)benzyl)-2-oxobenzo[cd]indol-1(2H)-yl)piperidine-2,6-dione]",X-ray diffraction,[7]; listed as Form IV,Crystalline
same,Thermogravimetry weight loss,"[7]; 10° C./min, at 105° C.",About 1.3%
same,water corresponding to TGA weight loss,"[7]; 10° C./min, listed as Form IV",105 °C (0.4 equiv.
same,stability of the form,[1]; THF/water systems with high water activity,stable
"O=C1CC[C@H](N2C(=O)c3cccc4c(Cc5ccc(CN6CCOCC6)cc5)ccc2c34)C(=O)N1 [Compound 1 Form II, (S)-3-(6-(4-(morpholinomethyl)benzyl)-2-oxobenzo[cd]indol-1(2H)-yl)piperidine-2,6-dione]",Notes (form stability under humidity),[8],No form change at 25° C./92% RH
same,Stoichiometry: MeOH,[7]; 1H-NMR,1.0 equiv.
same,Stoichiometry: DCM,"[7]; 1H-NMR, listed as Form II",0.3% DCM and
same,X-ray diffraction,[7]; listed as Form II,Crystalline
same,Form change at 25° C./92% RH,[7]; 25° C./92% RH for 2 days,No form change
same,DSC: Methanol desolvation,"[7]; DSC, 10° C./min",at 103.1 °C
same,Thermogravimetry weight loss,"[7]; 10° C./min, at 125° C.",About 7.1%
